Legend:
genital fibroblasts = conditions: Loire et al., Sultan et al.; cited from earlier work
male adult fibroblasts = male adult fibroblasts (cultures 2-6); increase based on the blank value; average of the two measuring conditions
Method: The process may be carried out, for example, as follows: cell suspensions of human fibroblasts (embryonal cells of adult male origin) are mixed with 1 to 2 mg/ml of a collagen suspension. […] After incubation for 7 days at 27° C./5% by volume carbon dioxide in a steam-saturated atmosphere, biopsies are taken and histological sections prepared. The quantity of macromolecules formed can be determined by two different methods:
1. a general determination by coloring the glucosaminoglucans (GAGs) with PAS Alcian Blue (standard coloration) and
2. a specific immunohistochemical characterization of certain elements of the matrix by treatment with antibodies, more especially anti-chondroitin sulfate, anti-keratan sulfate, anti-heparan sulfate, anti-dermatan sulfate, anti-elastin and anti-collagen (type III).
The fibroblasts are examined with a photon microscope in regard to the coloration (PAS Alcian) and with a confocal laser microscope in regard to the immunohistology. In order to determine the quantity of dermal macromolecules formed, micrographs are taken and the zones around the fibroblasts (“perifibroblastic zones”) are analyzed. Counting is done by image analysis, i.e. by determining the perifibroblastic zones and the gray level. Both parameters are directly proportional to the synthesis of dermal macromolecules. The results are evaluated in relation to the corresponding results without addition of the active components.
The numbers represent the increase in %-rel., based on the blank value, i.e. the absence of the male sex hormones, and expressed as the average of the two measuring conditions.

embryonal fibroblasts = experiment: Synthesis of dermal macromolecules in fibroblast cultures in collagen gel (embryonal fibroblasts); assay type: cell-based, human; conditions: increase based on the blank value (absence of hormone), average of the two measuring conditions
human skin cells = conditions: differentiation of human skin cells; cited from earlier work
epidermis = conditions: topical application, axillae of relatively old males; Kligman et al.; cited from earlier work

## C[C@]12CCC(=O)C[C@@H]1CC[C@@H]1[C@@H]2CC[C@]2(C)[C@@H](O)CC[C@@H]12 [DHT, dihydrotestosterone]
Genital fibroblasts
  DNA or protein distribution in the target cell: does not affect
Male adult fibroblasts
  Increase in the synthesis of macromolecules: Elastin: +552 %-rel.
  Increase in the synthesis of macromolecules: Heparan sulfate: +486 %-rel.

## C[C@]12CC[C@H]3[C@@H](CCC4=CC(=O)CC[C@@]43C)[C@@H]1CC[C@@H]2O [T (soluble), testosterone]
Embryonal fibroblasts
  Increase in the synthesis of macromolecules: Chondroitin sulfate: +23 %-rel.
  Increase in the synthesis of macromolecules: Collagen: +17 %-rel.
  Increase in the synthesis of macromolecules: Elastin: +11 %-rel.

## C[C@]12CC[C@H]3[C@@H](CCC4=CC(=O)CC[C@@]43C)[C@@H]1CC[C@@H]2O [T, testosterone]
Human skin cells
  reduction of granular cells, keratohyalin granules and keratinosomes: does counteract the reduction
Male adult fibroblasts
  Increase in the synthesis of macromolecules: Chondroitin sulfate: +537 %-rel.
  Increase in the synthesis of macromolecules: Elastin: +2753 %-rel.
  Increase in the synthesis of macromolecules: Keratan sulfate: +83 %-rel.

## CCC(=O)O[C@H]1CC[C@H]2[C@@H]3CCC4=CC(=O)CC[C@]4(C)[C@H]3CC[C@]12C [testosterone propionate]
epidermis
  strength of the epidermis: increases the strength of the epidermis

Reference: patent US20040248869A1, “Method for finding novel active ingredients having androgen-type properties” (priority 2001, published 2004)
